Laboratory results from ChEMBL document CHEMBL3603838, “Guanidinium compounds with sub-micromolar activities against Mycobacterium tuberculosis. Synthesis, characterization and biological evaluations” (Bioorg Med Chem, 2015).
Converted amounts (≈) assume the structure as drawn.

What was measured:
[1] = tested on: Mycobacterium tuberculosis; assay: Antimycobacterial activity against isoniazid-resistant Mycobacterium tuberculosis MYC5165 after 6 days by MTT assay; type: functional, organism-based; conditions: MYC5165, 144 h
[2] = tested on: Mycobacterium tuberculosis; assay: Ratio of isoniazid MIC to compound MIC for isoniazid-resistant Mycobacterium tuberculosis MYC5165; type: functional
[3] = Selectivity index, ratio of CC50 for human MRC5 cells to MIC for isoniazid-resistant Mycobacterium tuberculosis MYC5165; type: toxicity, cell-based; conditions: read-out: Selectivity Index
[4] = tested on: Mycobacterium tuberculosis; assay: Ratio of CX1 MIC to compound MIC for isoniazid-resistant Mycobacterium tuberculosis MYC5165; type: functional
[5] = tested on: Mycobacterium tuberculosis; assay: Ratio of streptomycin MIC to compound MIC for isoniazid-resistant Mycobacterium tuberculosis MYC5165; type: functional

| SMILES | MIC [1] [µM] | Ratio [2] | IC50 ([1]; read-out: IC50) [µM] | selectivity ratio [3] | Ratio [4] | Ratio [5] | IC50 [1] [µM] |
| --- | --- | --- | --- | --- | --- | --- | --- |
| CN[C@@H]1[C@H](O[C@H]2[C@H](O[C@H]3[C@H](O)[C@@H](O)[C@H](N=C(N)N)[C@@H](O)[C@@H]3N=C(N)N)O[C@@H](C)[C@]2(O)C=O)O[C@@H](CO)[C@H](O)[C@H]1O [STREPTOMYCIN] | 2.7 (≈ 1.57 µg/mL) |  |  |  |  |  |  |
| N=C(N)NCCc1ccc(OCc2cccc(COc3ccc(CCNC(=N)N)cc3)c2)cc1.O=C(O)C(F)(F)F | 0.8 | 16 | 0.3 | 62 | 16 |  |  |
| N=C(N)NCCc1ccc(OCc2ccc(COc3ccc(CCNC(=N)N)cc3)cc2)cc1.O=C(O)C(F)(F)F | 0.8 | 60 | 0.2 | 38 | 16 |  |  |
| N=C(N)NCCc1ccc(OCc2cc(COc3ccc(CCNC(=N)N)cc3)cc(COc3ccc(CCNC(=N)N)cc3)c2)cc1.O=C(O)C(F)(F)F | 0.2 | >125 |  | 198 |  | 4 |  |
| O=C(O)c1cn(C2CC2)c2cc(N3CCNCC3)c(F)cc2c1=O [CIPROFLOXACIN] | 2.5 (≈ 0.828 µg/mL) |  |  |  |  |  | 1.8 |
| NNC(=O)c1ccncc1 [ISONIAZID] | 12.5 (≈ 1.71 µg/mL) |  | 0.65 | > 6 |  |  |  |
| N=C(N)NCCc1cc2c(O)c(c1)Cc1cc(CCNC(=N)N)cc(c1O)Cc1cc(CCNC(=N)N)cc(c1O)Cc1cc(CCNC(=N)N)cc(c1O)C2 | 0.8 (≈ 0.612 µg/mL) |  |  | > 256 |  |  |  |
| N=C(N)NCCc1ccc(OCc2ccccc2COc2ccc(CCNC(=N)N)cc2)cc1.O=C(O)C(F)(F)F | 3.1 | 4 | 0.9 | 45 |  |  |  |
| N=C(N)NCCc1ccc(OCc2cc(COc3ccc(CCNC(=N)N)cc3)c(COc3ccc(CCNC(=N)N)cc3)cc2COc2ccc(CCNC(=N)N)cc2)cc1.O=C(O)C(F)(F)F | 0.1 | >125 | 0.03 | 377 |  |  |  |
